This is an account of results in publication PMC7242566, “The Three Lipocalins of Egg-White: Only Ex-FABP Inhibits Siderophore-Dependent Iron Sequestration by Salmonella Enteritidis” (Frontiers in Microbiology, 2020).

One experiment deals with Cal-γ. Kind of experiment: Isothermal titration calorimetry, siderophore binding to Cal-γ. On the set-up: species or system chicken. Particulars: ITC, TBS pH 7.4, 30°C, 5 μM lipocalin. As for the experimental part: (§1) Experiments were carried out with a GE Healthcare Microcal VP-ITC microcalorimeter according to the manufacturer’s guidelines (Operating Instructions 28-9639-79 AA). The device consisted of a motorized injection syringe, in which the ligand was loaded, with two adiabatic cells set at 30 °C. The left cell was filled with the reference (TBS with 1.3% DMSO), whereas the right cell was filled with 5 μM lipocalin protein dissolved in the same buffer. […] Samples were degassed and pre-equilibrated at the desired temperature using a GE MicroCal ThermoVac degassing station before loading into the syringe, sample cell and reference cell.
(§2) FIGURE 2 Interactions between lipocalins and SE siderophores. […] Data for LCN2, Fe-Ent are shown in the Supplementary Figure S2.
In general terms: ITC needs no label: the signal is the heat of the interaction.

The target of experiment [1] is T1, Ex-FABP (Gallus gallus, UniProt P21760).
T1 construct: made in house; host or cells: E. coli K-12 BW25113 ΔentB::kan (JW0587) (λDE3), pET21a, periplasmic secretion
T1 sequence (P21760 21-178): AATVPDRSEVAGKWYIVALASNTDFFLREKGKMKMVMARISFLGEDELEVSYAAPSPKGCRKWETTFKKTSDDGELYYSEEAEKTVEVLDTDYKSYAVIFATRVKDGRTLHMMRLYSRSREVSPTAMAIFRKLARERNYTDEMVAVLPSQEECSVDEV
Particulars: TQF, ref Correnti et al., 2011, cited from earlier work; for Kd: pH 7.4.

In experiment [2] the target is T2, LCN2 (Homo sapiens, UniProt P80188).
T2 construct: made in house; host or cells: E. coli K-12 BW25113 ΔentB::kan (JW0587) (λDE3), pET21a
T2 sequence (P80188 with tags, fused parts or gaps): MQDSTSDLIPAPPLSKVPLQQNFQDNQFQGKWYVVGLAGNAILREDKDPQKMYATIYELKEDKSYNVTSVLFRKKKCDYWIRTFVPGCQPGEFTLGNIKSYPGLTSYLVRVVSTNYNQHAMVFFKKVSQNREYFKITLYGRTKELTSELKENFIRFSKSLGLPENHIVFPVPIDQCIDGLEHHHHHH
Put plainly: Isothermal titration calorimetry, siderophore binding to LCN2. Particulars: ITC; for n (binding stoichiometry) / ΔH (enthalpy) / ΔS (entropy) / Kd: TBS pH 7.4, 30°C; for Kd: 5 μM lipocalin. The protocol: as §1

A further experiment addresses α-1-ovoglycoprotein. Kind of experiment: Isothermal titration calorimetry, siderophore binding to α-1-ovoglycoprotein. Also noted: species or system chicken. Particulars: ITC, TBS pH 7.4, 30°C, 5 μM recombinant non-glycosylated lipocalin. The protocol: as §1, §2
Experiment [3] addresses T1, Ex-FABP. Kind of experiment: biochemical. It counts as binding, chicken. The protocol:
as §1

On the set-up of experiment [4]: method as in Chart and Rowe, 1993. Particulars: ref Chart and Rowe, 1993; cited from earlier work.
In experiment [5] the target is T2, LCN2. Particulars: cited from earlier work; for Kd: TQF.
Experiment [6] has as its target T2, LCN2. On the set-up: method as in Li et al., 2015. Particulars: ITC, earlier report; ref Li et al., 2015; cited from earlier work.

Where “and” joins values, the source holds several entries; their conditions need not be identical. Identical values can stand only once. Like-named read-outs stand apart in the source and are kept apart here.

The term Kd denotes the free concentration of one partner at which half of the binding sites on the other are occupied at equilibrium, for simple one-to-one binding.

For `O=C(N[C@H]1COC(=O)[C@@H](NC(=O)c2cccc(O)c2O)COC(=O)[C@@H](NC(=O)c2cccc(O)c2O)COC1=O)c1cccc(O)c1O` [apo-Ent, enterobactin], the Kd entry at Cal-γ was “Under threshold”; at Cal-γ (listed as apoEnt), “neither Cal-γ nor α-1-ovoglycoprotein bind”; on Cal-γ (listed as enterobactin) it was “No interactions could be measured”; on Ex-FABP [1] (read-out: Kd), 0.5 ± 0.15 nM; at LCN2 [2] (Kd) it was 58 nM and 58.4 nM; at α-1-ovoglycoprotein it was “Under threshold”. Moreover, the Kd result was “neither Cal-γ nor α-1-ovoglycoprotein bind” at α-1-ovoglycoprotein (listed as apoEnt); “No interactions could be measured” on α-1-ovoglycoprotein (listed as enterobactin); 86.2 ± 14.6 nM at Ex-FABP [3]; 3.57 nM at LCN2 [5] (ref Abergel et al., 2006). The “n (binding stoichiometry)” value at LCN2 [2] is listed as 0.872; on Ex-FABP [3] (ITC, TBS pH 7.4, 30°C) it was 0.617. In addition, the “ΔH (enthalpy)” value at LCN2 [2] was -27.8 kcal/mol; on Ex-FABP [3] (ITC, TBS pH 7.4, 30°C), -28.3 kcal/mol. Besides, the “ΔS (entropy)” value on LCN2 [2] is recorded as −58.9 cal/mol, K; at Ex-FABP [3] (ITC, TBS pH 7.4, 30°C) it was −60.9 cal/mol, K. Further, the “binding/affinity constant for Fe^3+ (ferric ion)” value in experiment [4] is 10^52 M^−1.
salmochelin [apo-Sal (or DGE)]: the Kd entry is on record as “Under threshold” on Cal-γ; “neither Cal-γ nor α-1-ovoglycoprotein bind” on Cal-γ (listed as apoDGE); “No interactions could be measured” on Cal-γ (listed as salmochelin); “Under threshold” at Ex-FABP [1]; “No binding was observed” on LCN2 [2]; “Under threshold” at α-1-ovoglycoprotein. The Kd entry was “neither Cal-γ nor α-1-ovoglycoprotein bind” on α-1-ovoglycoprotein (listed as apoDGE); “No interactions could be measured” on α-1-ovoglycoprotein (listed as salmochelin); “No interactions could be measured” on Ex-FABP [3] (ITC, TBS pH 7.4, 30°C, 5 μM lipocalin); “failed to interact” at Ex-FABP [3] (ITC, TBS pH 7.4, 30°C, 5 μM lipocalin, listed as apoDGE).
Turning to `O=C(N[C@H]1COC(=O)[C@@H](NC(=O)c2cccc([O-])c2[O-])COC(=O)[C@@H](NC(=O)c2cccc([O-])c2[O-])COC1=O)c1cccc([O-])c1[O-].[Fe+3]` [Fe^3+-Ent], the Kd at Ex-FABP [1] (read-out: Kd) was 0.22 ± 0.06 nM; on LCN2 [2] (read-out: Kd), 11.8 ± 8.8 nM; on Ex-FABP [3] (ITC, TBS pH 7.4, 30°C, 5 μM lipocalin, read-out: Kd), 5.3 ± 3.8 nM; on LCN2 [6], 240 nM; at LCN2 [5] (ref Fischbach et al., 2006), 0.43 nM; on LCN2 [5] (ref Goetz et al., 2002), 0.41 nM. In addition, the “fold higher affinity for Fe^3+-Ent than apoEnt” value on Ex-FABP [1] is 2.3 fold; at LCN2 [2], 4.9 fold; on Ex-FABP [3] (ITC) it was 16 fold; at LCN2 [5] (ref Abergel et al., 2006), 8.7 fold. Further, the “n (binding stoichiometry)” value at LCN2 [2] is reported as 0.863; on Ex-FABP [3] (ITC, TBS pH 7.4, 30°C), 0.672. Also, the “ΔH (enthalpy)” value on LCN2 [2] was -26.2 kcal/mol; at Ex-FABP [3] (ITC, TBS pH 7.4, 30°C), -19.4 kcal/mol. Besides, the “ΔS (entropy)” value on LCN2 [2] is listed as −50.2 cal/mol, K; at Ex-FABP [3] (ITC, TBS pH 7.4, 30°C), −26.1 cal/mol, K.
